Results published in patent US9566341B1, “Compounds including Cox inhibitor moiety and enhanced delivery of active drugs using same” (University of Kentucky Research Foundation, priority 2011, dated 2017).
Entries after “also recorded” stand apart in the source; their conditions may differ. Where two headings read alike, the source gives them in different places.

Legend:
[1] = Concentration of saturated donor solution; assay type: physicochemical; conditions: base form; PG:ethanol:water=43:43:14
Experimental: Solubility studies are carried out by equilibrating large excesses of each drug with the solvent studied. The experiments will be done at skin surface temperature (32° C.). To hasten the attainment of equilibrium, each slurry will be continuously shaken or stirred. Samples will be taken, filtered with an appropriate filter for the solvent, measured with respect to volume, and either assayed directly by HPLC or evaporated to dryness and reconstituted for assay. Binding of the compounds to the filter will be checked to eliminate the possibility of drug adsorption on the filter and/or filter casing. All toxic solvents and other chemicals will be handled with caution, and fume hoods will be used when appropriate.
In vitro experiments. The goal of the first set of in vitro experiments was to estimate flux and skin concentration of the base form of the codrug.

[2] = Enzymatic stability in hairless guinea pig plasma; assay type: in vitro ADME; conditions: for enzymatic stability half-life in hairless guinea pig plasma: HGP plasma, 37° C., n=3
Experimental: Chemical and enzymatic stability was determined for the codrugs. For chemical stability studies, the codrug was put in prewarmed 0.3M acetate buffer pH 5.0 after solubilization in <5% ACN, if required, at 32° C. in an incubator. Samples were withdrawn at regular intervals and injected into the HPLC after appropriate dilutions. Enzymatic stability studies are important for estimation of conversion of codrugs in the plasma. For plasma stability studies prewarmed HGP plasma at 37° C. was spiked with codrug solution and samples were withdrawn at regular intervals. 100 μl of plasma sample was extracted with 1 ml of 1:1 ACN:ethyl acetate, vortexed, centrifuged at 10,000 rpm for 20 minutes on a bench top Eppendorf Mini Spin®. The supernatant was decanted into a glass tube and evaporated under nitrogen. Samples were reconstituted in 100 μl ACN and injected onto the HPLC. All stability data was analyzed using pseudo first order kinetics. All stability studies were carried out at least, in triplicate.

[3] = Chemical stability in 0.3M acetate buffer pH 5.0 at 32° C.; assay type: physicochemical
Description: The chemical stability of the prodrugs to hydrolysis and solvolysis at the appropriate temperatures will be determined by measuring concentrations over time in the buffers and solvents used in the solubility and diffusion studies. Chemical degradation rate constants will be important in distinguishing enzymatic degradation from non-enzymatic degradation. Codrug enzymatic metabolism rate constants can also be determined in skin homogenates, to ascertain if the values are useful in the QSPR multiple regression analysis. The kinetics of codrug enzymatic degradation in skin homogenates will be done using abdominal plastic surgery samples. Enzymatic reaction rates will be determined at several different codrug concentrations. The skin is homogenized (Polytron tissue homogenizer and ground glass homogenizer fitted with a glass pestle) in HEPES-buffered Hanks' balanced salt solution and the supernatant is obtained. The enzymatic hydrolysis rates are determined in the homogenate at 37° C. The codrug and its metabolites will be obtained by solid-phase extraction, or another appropriate extraction method. Naltrexone and any other metabolite formed will be assayed by HPLC and expressed as moles of metabolite per minute per milligram of protein. Protein concentrations in the supernatant will be measured by the Bradford method. Controls containing only codrug and HEPES-buffered Hanks' balanced salt solution at 37° C. will also be monitored to determine non-enzymatic hydrolysis.
Chemical and enzymatic stability was determined for the codrugs. For chemical stability studies, the codrug was put in prewarmed 0.3M acetate buffer pH 5.0 after solubilization in <5% ACN, if required, at 32° C. in an incubator. Samples were withdrawn at regular intervals and injected into the HPLC after appropriate dilutions. Enzymatic stability studies are important for estimation of conversion of codrugs in the plasma. […] All stability data was analyzed using pseudo first order kinetics. […]

[4] = In vitro diffusion study across microneedle-treated full thickness Yucatan miniature pig skin; assay type: in vitro ADME; conditions: for bioconversion of the codrug in the skin: parent drugs in receiver/skin
Experimental: For all in vitro experiments female Yucatan minipig skin (6 months old) were used. Skin sections were obtained by removing the subcutaneous fatty tissue by scalpel dissection, and were stored at −20° C. A PermeGear flow-through (In-Line, Riegelsville, Pa., USA) diffusion cell system was used for the skin permeation studies.
The skin was pierced 20 times with an array containing 5 MN (i.e., to make a total of 100 individual and non-over lapping piercings) before mounting the skin in the diffusion cell for the treatment group. The insertion of MN into skin was carried out manually by applying gentle finger pressure followed by instantaneous removal. MN's were distributed evenly within the 0.95 cm^2 area of skin and could easily be visualized after each 5 MN insertion, as to prevent reapplication in the same area. Single MN array of 5 were used simply out of ease for the experimental procedure. If any damage to an MN section was observed the section was replaced. […] Untreated skin samples were simply placed in the diffusion cells. Diffusion cells were kept at 32° C. using a circulating water bath. Data were collected using skin from a single pig 3-4 cells for the MN treated formulations.
The physiological receiver solution was water adjusted to pH 7.4 containing 20% ethanol, and the flow rate was adjusted to 1.5 ml/h. Each cell was charged with 0.25 ml of the donor in the donor compartment of the chamber. The diffusion cells were covered with a stopper to prevent evaporation. Samples were collected from the receiver compartment in six-hour increments over 48 h or for the length of the treatment. All samples were stored at 4° C. until analyzed by HPLC.
The in vitro permeation experiments were carried out to determine the transdermal flux of the parent drugs and the codrug, permeation coefficients as well as the concentration of the drug molecules in the skin at the end of the study. For all in vitro experiments Yucatan miniature pig (YP) skin was used. Full thickness skin was obtained by removing the subcutaneous fatty tissue by scalpel dissection, and stored at −20° C. A PermeGear flow-through (In-Line, Riegelsville, Pa., USA) diffusion cell system was used for the skin permeation studies. […] The skin was pierced 20 times with a 5 MN array (making 100 individual and non-over lapping piercings) before mounting the skin in the diffusion cell. MN pores were distributed evenly within the 0.95 cm^2 area of skin. Untreated skin samples were mounted directly onto the diffusion cells. The setup was maintained at 32° C. using a circulating water bath. Data collected using a minimum of 3-4 cells per treatment group. The receiver solution was water alkalified to pH 7.4 containing 20% ethanol at 37° C. Gentamycin sulfate (50 mg/L) was added to the receiver for 7 day studies as an antibacterial agent. The receiver flow rate was adjusted to 1.5 ml/h to maintain skin conditions. Each cell was charged with 0.25 ml of the donor and the diffusion cells were covered with a stopper to prevent evaporation of formulation. Samples were collected at regular increments over 48 hours or for the length of the treatment. Drug was concentrated 10 fold by evaporating 1 ml of the collected sample under nitrogen and reconstituting in 100 μl of ACN for quantification. All samples were stored at 4° C. until analyzed by HPLC. The skin was removed at the end of the study and the treatment area was diced into small pieces using a scalpel after removing all excess drugs from top of the skin. Drug was extracted out by immersing the skin pieces in ACN overnight in a shaker water bath at 32° C. Samples were injected into the HPLC after appropriate dilution for quantitative analysis. The donor was also removed and quantified at the end of the study by direct injection onto HPLC after suitable dilution using ACN. All data was analyzed using Fick's first law of diffusion. […]

[5] = test system: hairless guinea pig micropores; test: In vivo micropore visualization by gentian violet/India ink staining after MN treatment; conditions: codrug gel under occlusion, patch changed at 3.5 days
Description: The patches were removed at predetermined time points and the site was cleaned with sterile gauze. Gentian violet/India ink was applied as the dyeing agent at the MN treated sites and allowed to dry before excess dye was removed with ethanol and gauze. Both the dyes stain the viable epidermis but not the intact SC. […] The donor was removed from the top of the skin at the end of the study and analyzed by direct injection onto HPLC after suitable dilution using ACN.
All animal experiments were approved by the University of Kentucky IACUC. A proof of concept in vivo experiment was carried out. 4% w/w gels were prepared with the hydrochloride salt form of the codrug. Gels were formulated by dissolving 4% codrug salt in PG: buffer at pH 5.0=10:90 and 3.0% hydroxyethylcellulose (HEC) polymer (required to have a gel formulation). Polymer was dissolved over a 30 minute period to obtain a homogenous gel. The solution was stirred until a viscous gel resulted and then left at room temperature for 1½ to 2 hours to remove bubbles and ensure complete polymerization. The gel was saturated with excess solid and therefore was cloudy. MN treated animals were first cleaned topically with isopropyl alcohol, and 50 MN array was applied twice mutually perpendicular to each other to give a total of 100 pores at each site. 0.3 mL gel doses were applied to the dorsal region of the HGP. After application of the gel the skin was occluded with the occlusive patch and biocclusive tape was applied to prevent evaporation of the formulation. The patch was changed with new formulation at 3.5 days such that more than 50% intact codrug was always present in formulation. […] The patches were removed to obtain data at successive 24 h time intervals.
The patches were removed at predetermined time points and the site was cleaned with sterile gauze. Gentian violet/India ink was applied as the dyeing agent at the MN treated sites and allowed to dry before excess dye was removed with ethanol and gauze. Both the dyes stain the viable epidermis but not the intact SC.

[6] = cited from earlier work
[7] = in vivo, po, cited from earlier work

| Compound | concentration of saturated donor solution [1] [µg/mL] | Enzymatic stability [2] [min] | enzymatic stability half-life in hairless guinea pig plasma [2] | enzymatic stability half-life in hairless guinea pig plasma ([2]; listed as Compound 2U) [min] | enzymatic stability half-life in hairless guinea pig plasma ([2]; listed as codrug) [min] | Chemical stability [3] [days] | diclofenac skin concentration versus effective skin concentration goal of FIG. 5 [4] | flux of NTX from the codrug relative to diclofenac flux ([4]; FIG. 6) | bioconversion of the codrug in the skin ([4]; MN treated skin) | bioconversion of the codrug in the skin ([4]; MN treated skin, listed as Compound 2U) | bioconversion of the codrug in the skin ([4]; MN treated skin, listed as codrug) | steady state flux of naltrexone from the codrug ([4]; base form, saturated donor PG:ethanol:water=43:43:14, MN treated skin, 48 h, n=3) | steady state flux of diclofenac from the codrug ([4]; base form, saturated donor PG:ethanol:water=43:43:14, MN treated skin, 48 h, n=3, listed as Compound 2U) | time the pores stay open after MN treatment [5] [days] | log P [6] | oral bioavailability [7] | oral bioavailability ([7]; listed as Naltrexone) |
| --- | --- | --- | --- | --- | --- | --- | --- | --- | --- | --- | --- | --- | --- | --- | --- | --- | --- |
| O=C(Cc1ccccc1Nc1c(Cl)cccc1Cl)Oc1ccc2c3c1O[C@H]1C(=O)CC[C@@]4(O)[C@@H](C2)N(CC2CC2)CC[C@]314 [Compound 2A] | 4500 | 6.4 ± 0.84 | around 6 minutes | 6.4 ± 0.84 | 6.4 ± 0.84 | 3.9 ± 0.56 | did not provide that level | twice as high | bioconverted completely in the skin | degraded in the skin to regenerate back the parent drugs | completely hydrolyzed in the skin; also recorded: degraded in the skin to regenerate back the parent drugs | 0.42±0.12 nmol/(cm^2/h) | 0.19±0.06 nmol/(cm^2/h) | 7 |  |  |  |
| O=C1CC[C@@]2(O)[C@H]3Cc4ccc(O)c5c4[C@@]2(CCN3CC2CC2)[C@H]1O5 [NTX, Naltrexone] |  |  |  |  |  |  |  |  |  |  |  |  |  |  | 1.8 | 5-40% | five to forty |
